The subject of data set [1] is Carrageenin edema in rat's paw. Briefly: Carrageenin Edema Test in Rat's Paw (anti-inflammatory activity, Table 1). In kind it is in vivo. Conditions: 100 mg/kg oral, hydrochloride, rat. The method, then:
An anti-inflammatory activity was measured by orally administering 100 mg/kg of a hydrochloride of the indazole derivative of this invention as set forth in Table 1 to an animal in accordance with the standard method of Carrageenin Edema Test in Rat's Paw described in C. A. Winter et al., Proc. Soc. Exp. Biol. Med., 111, 544 (1962).
On the technique in general: The carrageenan paw model is a standard test of acute inflammation.

The next data set is described as follows: in vivo. Conditions: mouse, ip, intraperitoneal, hydrochloride, male ddy mice.

For orientation: inhibition in vivo means the change of the read-out against control, counted positive when it falls. The LD50 is the dose expected to kill half of the subjects tested. Low readings indicate greater toxicity, high ones lower toxicity. The compound `Oc1ccc2[nH]nc(NCCCCCCN3CCCCC3)c2c1` [(78), 3-(6-Piperidinohexylamino)-5-hydroxyindazole] gave an inhibition in vivo at 100 mg/kg in data set [1] of 25%. In the data set “in vivo”, the LD50 turned out to be 225 mg/kg.

`CC(CCNc1n[nH]c2ccc(O)cc12)N1CCCCC1` (stereo not shown) [(79), 3-(3-Piperidinobutylamino)-5-hydroxyindazole]: at 100 mg/kg the inhibition in vivo in data set [1] was 46%. This compound yielded an LD50 in the data set “in vivo” of 146 mg/kg.

`CC(C)CC(CCNc1n[nH]c2ccc(O)cc12)N1CCCCC1` (stereo not shown) [(80), 3-(3-Piperidino-5-methylhexylamino)-5-hydroxyindazole] came in with an inhibition in vivo at 100 mg/kg in data set [1] of 32%. Moreover, the LD50 in the data set “in vivo” is 332 mg/kg.

The compound `CC1CCCCN1CCCNc1n[nH]c2ccc(O)cc12` (stereo not shown) [(81), 3-[3-(2-Methylpiperidino)propylamino]-5-hydroxyindazole] returned an inhibition in vivo at 100 mg/kg in data set [1] of 47%. Further, in the data set “in vivo”, the LD50 was found to be 147 mg/kg.

Take `CC1CCCC(C)N1CCCNc1n[nH]c2ccc(O)cc12` (stereo not shown) [(82), 3-[3-(2,6-Dimethylpiperidino)propylamino]-5-hydroxyindazole]: in data set [1], 100 mg/kg produced 30% inhibition in vivo. In addition, the LD50 in the data set “in vivo” turned out to be 230 mg/kg.

`Oc1ccc2[nH]nc(NCCCN3CCC(O)CC3)c2c1` [(83), 3-[3-(4-Hydroxypiperidino)propylamino]-5-hydroxyindazole] displayed an inhibition in vivo at 100 mg/kg in data set [1] of 34%. The compound also returned an LD50 in “in vivo” of 134 mg/kg.

In turn, `Oc1ccc2[nH]nc(NCCCN3CCC(Cl)CC3)c2c1` [(84), 3-[3-(4-Chloropiperidino)propylamino]-5-hydroxyindazole] registered an inhibition in vivo at 100 mg/kg in data set [1] of 63%. In the data set “in vivo”, this compound had an LD50 of 163 mg/kg.

In the case of `Oc1ccc2[nH]nc(NCCCN3CCCCCC3)c2c1` [(85), 3-(3-Homopiperidinopropylamino)-5-hydroxyindazole], the inhibition in vivo at 100 mg/kg in data set [1] came to 35%. The LD50 in “in vivo” stood at 135 mg/kg.

In the case of `CN1CCN(CCCNc2n[nH]c3ccc(O)cc23)CC1` [(86), 3-[3-(4-Methylpiperadino)propylamino]-5-hydroxyindazole], at 100 mg/kg the inhibition in vivo in data set [1] was 23%. For the same compound, the LD50 in “in vivo” stood at 123 mg/kg.

On to `Oc1ccc2[nH]nc(NCCCN3CCCC3)c2c1` [(87), 3-(3-Pyrrolidinopropylamino)-5-hydroxyindazole], for which at 100 mg/kg the inhibition in vivo in data set [1] was 38%. Also, in “in vivo”, the LD50 is 238 mg/kg.

On to `Oc1ccc2[nH]nc(NCCCN3CCOCC3)c2c1` [(88), 3-(3-Morpholinopropylamino)-5-hydroxyindazole], for which testing at 100 mg/kg in data set [1] gave an inhibition in vivo of 46%. The compound further registered a median lethal dose (LD50) in the data set “in vivo” of 346 mg/kg.

Take `CCN(CC)CCCNc1nn(CCCN(CC)CC)c2cccc(Cl)c12` [(89), 1-(3-Diethylaminopropyl)-3-(3-diethylaminopropylamino)-4-chloroindazole]: the inhibition in vivo at 100 mg/kg in data set [1] turned out to be 30%. In the data set “in vivo”, this compound returned an LD50 of 214 mg/kg.

Compound `CCN(CC)CCCNc1nn(CCCN(CC)CC)c2ccc(Cl)cc12` [(90), 1-(3-Diethylaminopropyl)-3-(3-diethylaminopropylamino)-5-chloroindazole] registered an inhibition in vivo at 100 mg/kg in data set [1] of 29%. In the data set “in vivo”, this compound had a median lethal dose (LD50) of 223 mg/kg.

Regarding `CCN(CC)CCCNc1nn(CCCN(CC)CC)c2cc(Cl)ccc12` [(91), 1-(3-Diethylaminopropyl)-3-(6-diethylaminopropylamino)-6-chloroindazole], at 100 mg/kg the inhibition in vivo in data set [1] was 22%. This compound also gave an LD50 in the data set “in vivo” of 251 mg/kg.

`CCN(CC)CCCNc1nn(CCCN(CC)CC)c2c(Cl)cccc12` [(92), 1-(3-Diethylaminopropyl)-3-(3-diethylaminopropylamino)-7-chloroindazole] displayed an inhibition in vivo at 100 mg/kg in data set [1] of 32%. Also, the LD50 in “in vivo” is 211 mg/kg.

Take `CCN(CC)CCCNc1nn(CCCN(CC)CC)c2ccc(N)cc12` [(93), 1-(3-Diethylaminopropyl)-3-(3-diethylaminopropylamino)-5-aminoindazole]: in data set [1], the inhibition in vivo at 100 mg/kg stood at 28%. For the same compound, the LD50 in “in vivo” came out at 191 mg/kg.

For `CCN(CC)CCCNc1nn(CCCN(CC)CC)c2ccc(OC)cc12` [(94), 1-(3-Diethylaminopropyl)-3-(3-diethylaminopropylamino)-5-methoxyindazole], the inhibition in vivo at 100 mg/kg in data set [1] came out at 30%. This compound displayed an LD50 in “in vivo” of 301 mg/kg.

With `CCN(CC)CCCNc1nn(CCCN(CC)CC)c2ccc(C)cc12` [(95), 1-(3-Diethylaminopropyl)-3-(3-diethylaminopropylamino)-5-methylindazole], the inhibition in vivo at 100 mg/kg in data set [1] amounted to 29%. In the data set “in vivo”, this compound registered an LD50 of 211 mg/kg.

In data set [1], `CCN(CC)CCCn1nc(NCCCN2CCCCC2)c2cc(Cl)ccc21` [(96), 1-(3-Diethylaminopropyl)-3-(3-piperidinopropylamino)-5-chloroindazole] returned an inhibition in vivo at 100 mg/kg of 29%. In “in vivo”, this compound yielded an LD50 of 243 mg/kg.

The compound `CCN(CC)CCCn1nc(NCCCCCCN2CCCCC2)c2cc(Cl)ccc21` [(97), 1-(3-Diethylaminopropyl)-3-(6-piperidinohexylamino)-5-chloroindazole] registered an inhibition in vivo at 100 mg/kg in data set [1] of 22%. This compound also returned an LD50 in “in vivo” of 229 mg/kg.

In the case of `CCCCN(CCCC)CCCNc1nn(CCCN(CC)CC)c2ccc(Cl)cc12` [(98), 1-(3-Diethylaminopropyl)-3-(3-di-n-butylaminopropylamino)-5-chloroindazole], the inhibition in vivo at 100 mg/kg in data set [1] came to 32%. The median lethal dose (LD50) in “in vivo” turned out to be 286 mg/kg.

In data set [1], `CCN(CC)CCCn1nc(NCCC(C)N2CCCCC2)c2cc(Cl)ccc21` (stereo not shown) [(99), 1-(3-Diethylaminopropyl)-3-(3-piperidinobutylamino)-5-chloroindazole] had an inhibition in vivo at 100 mg/kg of 28%. Besides, the LD50 in the data set “in vivo” is 295 mg/kg.

Take `CCN(CC)CCCNc1nn(CCCN2CCCCC2)c2ccc(Cl)cc12` [(100), 1-(3-Piperidinopropyl)-3-(3-diethylaminopropylamino)-5-chloroindazole]: in data set [1], the inhibition in vivo at 100 mg/kg is 30%. Besides, in the data set “in vivo”, the LD50 worked out at 281 mg/kg.

`Clc1ccc2c(c1)c(NCCCN1CCCCC1)nn2CCCN1CCCCC1` [(101), 1-(3-Piperidinopropyl)-3-(3-piperidinopropylamino)-5-chloroindazole] returned an inhibition in vivo at 100 mg/kg in data set [1] of 29%. In the data set “in vivo”, this compound gave a median lethal dose (LD50) of 211 mg/kg.

The compound `Clc1ccc2c(c1)c(NCCCCCCN1CCCCC1)nn2CCCN1CCCCC1` [(102), 1-(3-Piperidinopropyl)-3-(6-piperidinohexylamino)-5-chloroindazole] yielded an inhibition in vivo at 100 mg/kg in data set [1] of 22%. Moreover, in the data set “in vivo”, the LD50 was determined as 255 mg/kg.

The compound `CC(CCNc1nn(CCCN2CCCCC2)c2ccc(Cl)cc12)N1CCCCC1` (stereo not shown) [(103), 1-(3-Piperidinopropyl)-3-(3-piperidinobutylamino)-5-chloroindazole] had an inhibition in vivo at 100 mg/kg in data set [1] of 29%. Moreover, in the data set “in vivo”, the LD50 came out at 261 mg/kg.

The compound `CCN(CC)CCCNc1nn(CCC(C)N2CCCCC2)c2ccc(Cl)cc12` (stereo not shown) [(104), 1-(3-Piperidinobutyl)-3-(3-diethylaminopropylamino)-5-chloroindazole] came in with an inhibition in vivo at 100 mg/kg in data set [1] of 30%. For the same compound, in the data set “in vivo”, the LD50 was determined as 277 mg/kg.

As for `CC(CCn1nc(NCCCN2CCCCC2)c2cc(Cl)ccc21)N1CCCCC1` (stereo not shown) [(105), 1-(3-Piperidinobutyl)-3-(3-piperidinopropylamino)-5-chloroindazole], the inhibition in vivo at 100 mg/kg in data set [1] was 29%. In addition, the LD50 in “in vivo” came out at 231 mg/kg.

Compound `CC(C)CC(CCNc1nn(CCC(C)N2CCCCC2)c2ccc(Cl)cc12)N1CCCCC1` (stereo not shown) [(106), 1-(3-Piperidinobutyl)-3-(3-piperidino-5-methylhexylamino)-5-chloroindazole] yielded an inhibition in vivo at 100 mg/kg in data set [1] of 22%. Further, the LD50 in the data set “in vivo” was found to be 228 mg/kg.

Compound `CC(CCNc1nn(CCC(C)N2CCCCC2)c2ccc(Cl)cc12)N(C)C` (stereo not shown) [(107), 1-(3-Piperidinobutyl)-3-(3-dimethylaminobutylamino)-5-chloroindazole] came in with an inhibition in vivo at 100 mg/kg in data set [1] of 22%. Besides, in the data set “in vivo”, the LD50 was 231 mg/kg.

`CCN(CC)CCCNc1nn(CCC(C)N(C)C)c2ccc(Cl)cc12` (stereo not shown) [(108), 1-(3-Dimethylaminobutyl)-3-(3-diethylaminopropylamino)-5-chloroindazole] registered an inhibition in vivo at 100 mg/kg in data set [1] of 30%. In the data set “in vivo”, this compound returned an LD50 of 118 mg/kg.

Compound `CC(CCn1nc(NCCCN2CCCCC2)c2cc(Cl)ccc21)N(C)C` (stereo not shown) [(109), 1-(3-Dimethylaminobutyl)-3-(3-piperidinopropylamino)-5-chloroindazole] displayed an inhibition in vivo at 100 mg/kg in data set [1] of 29%. In addition, the LD50 in the data set “in vivo” came out at 387 mg/kg.

Take `CC(CCn1nc(NCCC(C)N2CCCCC2)c2cc(Cl)ccc21)N(C)C` (stereo not shown) [(110), 1-(3-Dimethylaminobutyl)-3-(3-piperidinobutylamino)-5-chloroindazole]: in data set [1], the inhibition in vivo at 100 mg/kg came out at 28%. Moreover, in “in vivo”, the LD50 came out at 293 mg/kg.

Turning to `CCN(CC)C(CCNc1nn(CCC(C)N(C)C)c2ccc(Cl)cc12)CC(C)C` (stereo not shown) [(111), 1-(3-Dimethylaminobutyl)-3-(3-diethylamino-5-methylhexylamino)-5-chloroindazole], in data set [1], the inhibition in vivo at 100 mg/kg stood at 22%. The LD50 in “in vivo” was determined as 314 mg/kg.

Regarding `Clc1ccc2c(c1)c(NCCCN1CCCCCC1)nn2CCCN1CCCC1` [(112), 1-(3-Pyrrolidinopropyl)-3-(3-homopiperidinopropylamino)-5-chloroindazole], in data set [1], the inhibition in vivo at 100 mg/kg turned out to be 29%. The same compound yielded an LD50 in “in vivo” of 325 mg/kg.

As for `CC1CCCCN1CCCNc1nn(CCCN2CCCC2)c2ccc(Cl)cc12` (stereo not shown) [(113), 1-(3-Pyrrolidinopropyl)-3-[3-(2-methylpiperidino)propylamino]-5-chloroindazole], the inhibition in vivo at 100 mg/kg in data set [1] is 31%. For the same compound, the LD50 in “in vivo” stood at 221 mg/kg.

In data set [1], `CN1CCN(CCCNc2nn(CCCN3CCCC3)c3ccc(Cl)cc23)CC1` [(114), 1-(3-Pyrrolidinopropyl)-3-[3-(4-methylpiperazino)propylamino]-5-chloroindazole] yielded an inhibition in vivo at 100 mg/kg of 30%. This compound gave an LD50 in the data set “in vivo” of 299 mg/kg.

The compound `CCN(CC)CCCNc1nn(CCCN2CCOCC2)c2ccc(Cl)cc12` [(115), 1-(3-Morpholinopropyl)-3-(3-diethylaminopropylamino)-5-chloroindazole] returned an inhibition in vivo at 100 mg/kg in data set [1] of 31%. Besides, in “in vivo”, the LD50 came out at 301 mg/kg.

Values taken from patent publication US4751302A, “Indazole derivatives” (priority 1982, dated 1988).
